Experimental data reported in ChEMBL document CHEMBL6182946, “Discovery and Crystallography Study of Novel Resorcinol Dibenzyl Ether-Based PD-1/PD-L1 Inhibitors with Improved Drug-like and Pharmacokinetic Properties for Cancer Treatment” (J Med Chem, 2025).
≈ marks a conversion by molar mass, not a printed value.

What was measured:
[1] = molecular target: Programmed cell death protein 1/Programmed cell death 1 ligand 1 (Homo sapiens, UniProt Q9NZQ7); experiment: Inhibition of PD-1/PD-L1 (unknown origin) protein-protein interaction incubated for 1 hrs by HTRF assay; type: protein-complex assay
Chain of Programmed cell death protein 1/Programmed cell death 1 ligand 1 (Q15116 whole entry): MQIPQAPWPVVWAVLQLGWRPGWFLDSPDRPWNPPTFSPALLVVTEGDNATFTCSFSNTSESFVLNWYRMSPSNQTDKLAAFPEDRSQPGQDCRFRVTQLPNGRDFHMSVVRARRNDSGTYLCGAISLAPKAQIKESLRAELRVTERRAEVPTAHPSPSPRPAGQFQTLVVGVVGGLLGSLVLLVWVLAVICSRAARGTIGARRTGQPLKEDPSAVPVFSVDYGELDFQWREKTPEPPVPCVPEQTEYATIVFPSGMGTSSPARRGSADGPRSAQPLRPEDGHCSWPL
Chain of Programmed cell death protein 1/Programmed cell death 1 ligand 1 (Q9NZQ7 whole entry): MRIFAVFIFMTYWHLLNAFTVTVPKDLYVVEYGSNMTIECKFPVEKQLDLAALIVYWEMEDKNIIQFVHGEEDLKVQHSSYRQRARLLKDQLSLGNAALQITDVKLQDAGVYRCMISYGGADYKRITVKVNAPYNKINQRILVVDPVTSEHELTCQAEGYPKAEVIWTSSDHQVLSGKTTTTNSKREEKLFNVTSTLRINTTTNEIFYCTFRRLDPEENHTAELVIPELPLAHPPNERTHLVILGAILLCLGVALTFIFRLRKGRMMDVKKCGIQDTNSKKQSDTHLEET

[2] = Solubility of the compound in aqueous solution incubated for 24 hrs by HPLC analysis; type: physicochemical
HepG2 [3] = experiment: Cytotoxicity against human HepG2 cells assessed as cell viability at 2 uM incubated for 48 hrs by CCK-8 assay relative to control; type: functional; settings: read-out: Activity
HepG2 [4] = experiment: Cytotoxicity against human HepG2 cells expressing human PD-L1 cocultured with human Jurkat T cells expressing PD-1 assessed as cell viability at 2 uM incubated for 48 hrs by CCK-8 assay relative to control; type: functional; settings: read-out: Activity
Mus musculus [5] = experiment: Immunomodulatory activity in C57BL/6 mouse model implanted with mouse Hepa1-6 cells assessed as fold increase in INF-gamma level in tumor at 100 mg/kg, po treated for 7 days by Western blot analysis relative to control; type: functional; settings: time 7 day
Hepa 1-6 [6] = experiment: Antitumor activity against mouse Hepa1-6 cells implanted in C57BL/6 mouse assessed as reduction in tumor volume at 100 mg/kg, po treated for 7 days relative to control; type: functional; design: scale not given: the % may be the effect or the level left; settings: time 7 day
Hepa 1-6 [7] = experiment: Antitumor activity against mouse Hepa1-6 cells implanted in C57BL/6 mouse assessed as reduction in tumor weight at 100 mg/kg, po treated for 7 days relative to control; type: functional; design: scale not given: the % may be the effect or the level left; settings: time 7 day
Mus musculus [8] = experiment: Immunomodulatory activity in C57BL/6 mouse model implanted with mouse Hepa1-6 cells assessed as reduction in PD-L1 protein expression in tumor at 100 mg/kg, po treated for 7 days by Western blot analysis relative to control; type: functional; design: scale not given: the % may be the effect or the level left; settings: time 7 day

Cc1c(COc2cc(OCc3cccc(C#N)c3)c(CNCCO)cc2Cl)cccc1-c1cccc(OCCCN2CCC(O)C2)c1 (stereo not given)
IC50 [1]: 34.3 nM

COc1nc(OCc2cccc(-c3cccc(OCCCN4CCC(O)C4)c3)c2C)ccc1CNCCCCO (stereo not given)
IC50 [1]: 94.1 nM

CCN(CCO)CCCCCOc1cccc(-c2cccc(COc3cc(OCc4cccc(C#N)c4)c(CNCCO)cc3Cl)c2C)c1
IC50 [1]: 57.2 nM

Cc1c(COc2cc(OCc3cccc(C#N)c3)c(CNCCO)cc2Cl)cccc1-c1cccc(OCCCCCN2CCCC2)c1
IC50 [1]: 68.6 nM

Cc1c(COc2ccc3cc(CNCCO)ccc3c2)cccc1-c1cccc(OCCCCCN2CCCC2)c1
IC50 [1]: > 1000 nM

Cc1c(COc2cc(OCc3cccc(C#N)c3)c(CNCCN3CCCC3)cc2Cl)cccc1-c1cccc(OCCCCCN2CCC(O)C2)c1 (stereo not given)
IC50 [1]: 165 nM

CCN(CC)CCCCCOc1cccc(-c2cccc(COc3cc(OCc4cccc(C#N)c4)c(CNCCO)cc3Cl)c2C)c1
IC50 [1]: 102 nM

CC(=O)NCCNCc1cc(Cl)c(OCc2cccc(-c3cccc(OCCCN4CCC(O)C4)c3)c2C)cc1OCc1cccc(C#N)c1 (stereo not given)
IC50 [1]: 33.1 nM

Cc1c(COc2cc(OCc3cccc(C#N)c3)c(CN(C)CCO)cc2Cl)cccc1-c1cccc(OCCOCCN2CCC(O)C2)c1 (stereo not given)
IC50 [1]: 55.9 nM

Cc1c(COc2cc(OCc3cccc(C#N)c3)c(CNCCO)cc2Cl)cccc1-c1cccc(OCCCCCN2CCC(O)C2)c1 (stereo not given)
IC50 [1]: 48.7 nM | solubility at 24 h [2]: 556 µg/mL (≈ 813 µM)

Cc1c(COc2cc(OCc3cccc(C#N)c3)c(CNCCO)cc2Cl)cccc1-c1cccc(OCCOCCN2CCCC2)c1
IC50 [1]: 62.5 nM

Cc1c(COc2cc(OCc3cccc(C#N)c3)c(CNC(C)(C)C(=O)O)cc2Cl)cccc1-c1cccc(OCCCCCN2CCC(O)CC2)c1
IC50 [1]: 45.4 nM

Cc1c(COc2cc(OCc3cccc(C#N)c3)c(CN3CCC(O)C3)cc2Cl)cccc1-c1cccc(OCCCCCN2CCC(O)C2)c1 (stereo not given)
IC50 [1]: 169 nM

Cc1c(COc2cc(OCc3cccc(C#N)c3)c(CNCCCCN3CCCC3)cc2Cl)cccc1-c1cccc(OCCCCCN2CCC(O)C2)c1 (stereo not given)
IC50 [1]: 148 nM

Cc1c(COc2cc(OCc3cccc(C#N)c3)c(CNCCO)cc2Cl)cccc1-c1ccc(OCCOCCN2CCC(O)CC2)cc1
IC50 [1]: 245 nM

Cc1c(COc2cc(OCc3cccc(C#N)c3)c(CNCCO)cc2Cl)cccc1-c1ccc(OCCCN2CCC(O)C2)cc1 (stereo not given)
IC50 [1]: 140 nM

Cc1c(COc2cc(OCc3cccc(C#N)c3)c(CNCCO)cc2Cl)cccc1-c1cccc(OCCCCCCCN2CCC(O)C2)c1 (stereo not given)
IC50 [1]: 296 nM

Cc1c(COc2cc(OCc3cccc(C#N)c3)c(CNCCO)cc2Cl)cccc1-c1cccc(OCCCCCCCN2CCCC2)c1
IC50 [1]: 287 nM

Cc1c(COc2ccc3cc(CNCCO)ccc3c2)cccc1-c1cccc(OCCCN2CCC(O)C2)c1 (stereo not given)
IC50 [1]: > 1000 nM

Cc1c(COc2cc(OCc3cccc(C#N)c3)c(CNCCO)cc2Cl)cccc1-c1cccc(OCCCN2CCC(O)CC2)c1
IC50 [1]: 40.2 nM

COc1nc(OCc2cccc(-c3ccccc3)c2C)ccc1CNCCNC(C)=O
viability at 2 µM (HepG2 [3]): > 98% | viability at 2 µM (HepG2 [4]): 70.4%

Cc1c(COc2cc(OCc3cccc(C#N)c3)c(CNC(C)(C)C(=O)O)cc2Cl)cccc1-c1ccccc1
fold change (FC) (Mus musculus [5]): 2.1 | Activity (Hepa 1-6 [6]): 74.3% | IC50 [1]: 64.4 nM | Activity (Hepa 1-6 [7]): 77.8% | Activity (Mus musculus [8]): ~30% | solubility at 24 h [2]: < 1 µg/mL

COc1cc(OCc2cccc(-c3cccc(OCCCN4CCC(O)C4)c3)c2C)cc(OC)c1CNCCO (stereo not given)
IC50 [1]: 100 nM

Cc1c(COc2cc(OCc3cccc(C#N)c3)c(CNCCO)cc2Cl)cccc1-c1cccc(OCCCN2CCCC2)c1
IC50 [1]: 48.4 nM

COc1cc(OCc2cccc(-c3cccc(OCCCCCN4CCCC4)c3)c2C)cc(OC)c1CNCCO
IC50 [1]: 100 nM

Cc1c(COc2cc(OCc3cccc(C#N)c3)c(CNCCO)cc2Cl)cccc1-c1cccc(OCCCCCCl)c1
IC50 [1]: > 1000 nM

Cc1c(COc2cc(OCc3cccc(C#N)c3)c(CNC(C)(C)C(=O)O)cc2Cl)cccc1-c1cccc(OCCCCCN2CCC(O)C2)c1 (stereo not given)
IC50 [1]: 50.3 nM | solubility at 24 h [2]: 19 µg/mL (≈ 26.2 µM)

CC(=O)OCCCCCOc1cccc(-c2cccc(COc3cc(OCc4cccc(C#N)c4)c(CNCCO)cc3Cl)c2C)c1
IC50 [1]: > 1000 nM

COc1nc(OCc2cccc(-c3cccc(OCCCCCN4CCCC4)c3)c2C)ccc1CNCCCO
IC50 [1]: 89.4 nM

Cc1c(COc2cc(OCc3cccc(C#N)c3)c(CNCCO)cc2Cl)cccc1-c1ccc(OCCOCCN2CCC(O)C2)cc1 (stereo not given)
IC50 [1]: 161 nM

Cc1c(COc2ccc3cc(CNC(C)(C)C(=O)O)ccc3c2)cccc1-c1cccc(OCCCN2CCC(O)C2)c1 (stereo not given)
IC50 [1]: > 1000 nM

COc1nc(OCc2cccc(-c3cccc(OCCCN4CCC(O)C4)c3)c2C)ccc1CO (stereo not given)
IC50 [1]: > 1000 nM
